Target: T1, Homoserine kinase (Escherichia coli (strain K12), UniProt P00547)
T1 sequence (P00547 whole entry): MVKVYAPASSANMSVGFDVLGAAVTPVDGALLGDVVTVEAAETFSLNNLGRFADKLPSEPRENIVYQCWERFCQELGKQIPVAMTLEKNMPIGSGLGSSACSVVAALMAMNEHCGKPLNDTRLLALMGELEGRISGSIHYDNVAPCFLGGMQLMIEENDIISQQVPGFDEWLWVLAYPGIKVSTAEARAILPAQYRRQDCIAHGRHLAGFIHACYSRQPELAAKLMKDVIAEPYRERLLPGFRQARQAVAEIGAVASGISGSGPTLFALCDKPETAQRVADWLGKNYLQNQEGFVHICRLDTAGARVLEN
Assay: Enzyme Inhibition Assay
Details: pH 7.5; 37 °C
Text: The phosphorylation of L-Hse was monitored by coupling the formation of ADP with pyruvate kinase and lactate dehydrogenase (PK/LDH). The resulting oxidation of NADH was monitored at 340 nm by using a SpectraMax plate reader in a 96-well format.

SMILES | Ki
CC(=O)C(C#N)C(=O)Nc1cc(Br)ccc1Br (stereo unspecified) | 12 µM
O=C1C(O)c2cc(O)c(O)cc2OC1c1ccc(O)c(O)c1 (stereo unspecified) | 27.1 µM
CC1NN(c2ccccc2)c2nc(C(F)(F)F)cc(O)c21 (stereo unspecified) [Thr1 inhibitor, 6] | 8.6 µM
C=CC(=O)c1ccc2ccccc2c1 [Thr1 inhibitor, 1] | 32 µM
CC(C)Cc1nc2sc3c(c2c(=O)o1)CCCCC3 [Thr1 inhibitor, 5] | 35.8 µM
O=C1OC2C=CCC=C2C(=O)C1Cc1c(O)c2ccccc2oc1=O (stereo unspecified) [Thr1 inhibitor, 4] | 0.46 µM

Source: BindingDB's records for doi:10.1002/cbic.201100121 (Mcmaster University, 2011)
